According to US20240343712A1, “SOLID-STATE FORMS OF 2-(3-(4-(1H-INDAZOL-5-YLAMINO)QUINAZOLIN-2-YL)PHENOXY)-N-ISOPROPYLACETAMIDE METHANE SULFONIC ACID SALT” (Sandoz AG, priority 2021, published 2024):

Tests used:
[1] = Gravimetric moisture sorption (GMS); type: physicochemical; settings: (25 ± 0.1)° C.; for Comment (hygroscopicity / behaviour upon moisture contact) / Δm (0-80% RH): 0-80% RH; for Δm (0-80% RH): gravimetric moisture sorption
Experimental: Moisture sorption isotherms were recorded with an SPSx-1μ moisture sorption analyzer (ProUmid, Ulm). The measurement cycle was started at ambient relative humidity (RH) of 40%. Relative humidity was then decreased to 5% RH in 5% steps, followed by a further decrease to 3% RH and to 0% RH. Afterwards RH was increased from 0% to 90% in a sorption cycle and decreased to 0% in a desorption cycle in 5% steps. Finally RH was increased from 0 to 40% in 5% steps.
The time per step was set to a minimum of 2 hours and a maximum of 6 hours. If an equilibrium condition with a constant mass of +0.01% within 1 hour was reached before the maximum time for all examined samples the sequential humidity step was applied before the maximum time of 6 hours. If no equilibrium was achieved the consecutive humidity step was applied after the maximum time of 6 hours. The temperature was 25±0.1° C.

[2] = Thermogravimetric analysis (TGA); type: physicochemical; settings: for stability against temperature stress: DSC and TGA, Examples 7 and 8
Experimental: TGA was performed on a Mettler TGA/DSC 1 instrument. The samples (5.15 mg Form I, 5.69 Form II, 3.97 mg Form HyA, and 8.55 mg Form HyB) were each heated in a 100 microliter aluminium pan closed with an aluminium lid from 25 to 300° C. at a rate of 10 K/min. The lid was automatically pierced at the beginning of the measurement. Nitrogen (purge rate 50 mL/min) was used as purge gas.

Row | SMILES | Comment (hygroscopicity / behaviour upon moisture contact) [1] | Δm (0-80% RH) [1] | stability against temperature stress [2] | also measured
1 | CC(C)NC(=O)COc1cccc(-c2nc(Nc3ccc4[nH]ncc4c3)c3ccccc3n2)c1.CS(=O)(=O)O [Mesylate Form I, 2-(3-(4-(1H-indazol-5-ylamino)quinazolin-2-yl)phenoxy)-N-isopropylacetamide methane sulfonic acid] | Slightly hygroscopic | +1.9 w-% | stable against temperature stress | Comment (hygroscopicity / behaviour upon moisture contact) ([1]; listed as belumosudil mesylate Form I): only slightly hygroscopic; Δm (0-250° C.), TGA mass loss ([2]; 0-250° C., 10 K/min, nitrogen): Δm (0-250° C.) = 0.87%, anhydrate
2 | CC(C)NC(=O)COc1cccc(-c2nc(Nc3ccc4[nH]ncc4c3)c3ccccc3n2)c1.CS(=O)(=O)O [Amorphous mesylate, 2-(3-(4-(1H-indazol-5-ylamino)quinazolin-2-yl)phenoxy)-N-isopropylacetamide methane sulfonic acid] | Very hygroscopic | +21.2 w % w-% | – | Comment (hygroscopicity / behaviour upon moisture contact) ([1]; listed as amorphous belumosudil mesylate): moderately hygroscopic
3 | CC(C)NC(=O)COc1cccc(-c2nc(Nc3ccc4[nH]ncc4c3)c3ccccc3n2)c1.CS(=O)(=O)O [Mesylate Form HyA, 2-(3-(4-(1H-indazol-5-ylamino)quinazolin-2-yl)phenoxy)-N-isopropylacetamide methane sulfonic acid] | – | – | – | Relative humidity of dehydration (release of crystal water) [1]: Dehydration below 3% RH; Δm (0-130° C.), TGA mass loss ([2]; 0-130° C., 10 K/min, nitrogen): Δm (0-130° C.) = 5.97%, corresponds to a dihydrate
4 | CC(C)NC(=O)COc1cccc(-c2nc(Nc3ccc4[nH]ncc4c3)c3ccccc3n2)c1.CS(=O)(=O)O [Mesylate Form HyB, 2-(3-(4-(1H-indazol-5-ylamino)quinazolin-2-yl)phenoxy)-N-isopropylacetamide methane sulfonic acid] | – | – | – | Δm (0-140° C.), TGA mass loss ([2]; 0-140° C., 10 K/min, nitrogen): Δm (0-140° C.) = 3.19%, corresponds to a monohydrate
5 | CC(C)NC(=O)COc1cccc(-c2nc(Nc3ccc4[nH]ncc4c3)c3ccccc3n2)c1.CS(=O)(=O)O [Mesylate Form II, 2-(3-(4-(1H-indazol-5-ylamino)quinazolin-2-yl)phenoxy)-N-isopropylacetamide methane sulfonic acid] | Slightly hygroscopic | +1.4 w-% | stable against temperature stress | Comment (hygroscopicity / behaviour upon moisture contact) ([1]; listed as Form II): only slightly hygroscopic; Δm (0-100° C.), TGA mass loss ([2]; 0-100° C., 10 K/min, nitrogen): Δm (0-100° C.) = 0.32%, anhydrate
